Test results reported in patent publication US20040214767A1, “Regulation of follicular development and ovulation by cytoskeletal genes and gene products” (priority 2002, published 2004).

Test system: rat primary granulosa cells
Experiment: Effects of CHX and alpha-amanitin on FSH/forskolin-induced expression of cytoskeletal genes in granulosa cells
Assay type: cell-based
Conditions: for β-tubulin mRNA: with or without FSH
Procedure: FIG. 8. Effects of CHX and alpha-amanitin treatment on the FSH/forskolin-induced expression of the cytoskeletal genes. Granulosa cells were isolated from the ovaries of 170 estradiol primed 24 day old immature rats. They were cultured in the medium containing FSH (30 ng/ml) or forskolin (10 microM, FSK) in the presence or absence of CHX (10 μg/ml) for 6 hours (A) or 24 hours (B). In addition, the 24 hours cells were also cultured, likewise, in the presence of alpha-amanitin (30 microg/ml, AMA). Total RNA was isolated and analyzed for mRNAs of TM4, Khc, beta-tubulin and inhibin alpha as described in the description of FIG. 7. Values are the meanfold increase over control (no treatment)±SE. Values were pooled from two separate experiments.
As a step to determine the mechanisms of the FSH-responsive mRNA expression, the granulosa cells were treated with FSH in the presence or absence of a translation inhibitor, CHX, and a transcription inhibitor, alpha amanitin.
Eighteen to twenty-one day old Sprague-Dawley female pups with nursing mothers were purchased from Harlan Breeding Company (Indianapolis, Ind.) and housed in a photoperiod of 14 h light/10 h darkness with light on at 0500 h. For in situ hybridization, rats were injected subcuteneoulsy with 15 IU PMSG (Sigma) in 0.1 ml PBS on 22-23 days of age. Depending on the experiments, PMSG 48 hours-primed rats were injected i.p. with 10 IU hCG. Ovaries were frozen on dry ice immediately after excision and stored at −80 C. […] Ovaries were collected in ice-cold serum-free 4F medium consisting of 15 mM HEPES (pH 7.4), 50% DMEM and 50% Ham's F12 with bovine transferrin (5 micro g/ml), human insulin (2 mg/ml), hydrocortisone (40 ng/ml) and antibiotics, and processed as previously described. Cells were washed three times, resuspended in 4F, plated on serum-coated. Six-well plate (1×10^6 cells in 2 ml per well), and incubated at 37 C for 16 hours. FSH (30 ng/ml) or forskolin (10 micro M) was added to the cell cultures. For the inhibition of protein synthesis or transcription, 10 micro g/ml of cycloheximide (CHX) or alpha-amanitin (30 microg/ml) was, respectively, added 1 h before hormone treatment.
RT-PCR was performed essentially as previously described (Ko, et al., Endocrinology 140:5185-5194. Total RNA (1-2 micro g) was reverse-transcribed at 37 C in a 20 micro L reaction volume using random hexamer (500 ng) and MMLV reverse transcriptase (10 units) (New England BioLabs, Boston, Mass.). Complementary DNA (cDNA) samples (2 micro L) were added to a total 25 micro L reaction mix containing the primers (200 ng each), 0.4 mM dNTP mixture, and Taq DNA polymerase (2.5 U) in 1×PCR buffer (10 mM Tris, pH 8.3, 50 mM KCl, 1.5 mM MgCl2, 0.01% gelatin). All PCR amplifications were carried out for 20, 25 or 30 cycles on a MJ Research Minicycler. PCR products were separated by 2% agarose gel electrophoresis, stained with SYBR® Green I (Molecular Probes), and visualized by phosphoimaging technology (FLA-2000; Fuji, Stamford, Conn.). The following primers were used in the present studies: TM4 (5′-gag aac tcc tga ctg aac tgg acg-3′(SEQ ID NO. 1) and 5′-cca tat tcc ctg ctg agc gta g-3′(SEQ ID NO. 2), 282 bp), Khc (5′-aac tga atc gcc tcc aag cag-3′ and 5′-cga act ggc gag aac tgg atg-3′, 195 bp), β-tubulin (5′-cct gct cat cag caa gat tcg-3′(SEQ ID NO. 3) and 5′-gtg gtg agc tta agg gta cgg, (SEQ ID NOI 4) 210 bp), and inhibin alpha subunit (5′-gct ttc cct ctg ttg acc cac-3′ (SEQ ID NO. 5) and 5′-aga tgt tga ggg cag ctc gat-3′, (SEQ ID NO. 6) 255 bp). L-19 (5′-ctg aag gtc aaa ggg aat gtg-3 (SEQ ID NO. 7) and 5′-gga cag agt ctt gat gat ctc, (SEQ ID NO. 8) 194 bp) oligo nucleotide primers were used to amplify ribosomal protein L-19 as an internal control.

[1] = CHX, cells treated with FSH for 24 hours
[2] = CHX, cells treated with FSH for six hours
[3] = cells treated with FSH for 24 hours
[4] = alpha-amanitin 30 microg/ml, 24 hours

| SMILES | β-tubulin mRNA level (24 hours FSH in the presence of CHX) | β-tubulin mRNA (CHX 10 μg/ml, 6 hours) | TM4 mRNA level [1] | inhibin alpha mRNA level [1] | Khc mRNA level [2] | TM4 mRNA level [2] | inhibin alpha mRNA level [2] | effect on Khc mRNA level [3] | FSH-induced mRNA expression of all of the cytoskeletal and inhibin alpha genes [4] | β-tubulin mRNA [4] |
| --- | --- | --- | --- | --- | --- | --- | --- | --- | --- | --- |
| C[C@@H]1C[C@@H]([C@H](O)CC2CC(=O)NC(=O)C2)C(=O)[C@@H](C)C1 [CHX, cycloheximide] | decreased to apparent basal level | could not be detected | slightly enhancing | substantially suppressing | lowered the Khc mRNA level, though not completely | increased | increased | marginal | – | – |
| CC[C@H](C)[C@@H]1NC(=O)CNC(=O)[C@@H]2Cc3c([nH]c4cc(O)ccc34)[S+]([O-])C[C@@H](NC(=O)CNC1=O)C(=O)N[C@@H](CC(N)=O)C(=O)N1C[C@H](O)C[C@H]1C(=O)N[C@@H]([C@@H](C)[C@@H](O)CO)C(=O)N2 (stereo partly drawn) [alpha amanitin, alpha-amanitin] | – | – | – | – | – | – | – | marginal | blocked | blocked both the maintenance and FSH dependent increase |
